# Results reported in patent publication EP2444086A1, “Combinations comprising DHODH inhibitors and COX inhibitors” (Almirall, S.A., priority 2010, dated 2012).
# System: HaCaT cells
# Assay: Proliferation assay (ATP-lite bioluminescent assay of intracellular ATP content)
# Format: cell-based
# Conditions: Homo sapiens, 144 h; inhibition of proliferation of HaCaT cells, 6 days incubation, 10% FBS, absolute IC50, mean of 3 experiments
# Description: Human adult low calcium high temperature (HaCaT) cells are spontaneously transformed human keratinocytes that have the characteristics of basal epidermal keratinocytes (Boukamp et at. J Cell Biol 106:761-771, 1988) This line can be used as in vitro model for highly proliferative epidermis (Ockenfels et at., Arch Dermatol Res 287:301-309, 1995)
# HaCaT cells exponentially growing were plated in clear bottom, white walled, 96-well plates at a density of 5000 cells/well in 100 µL Dulbecco's modified Eagle's medium (DMEM) containing 1% fetal bovine serum (FBS), and incubated overnight at 37 °C, 5% CO2. Next day, media in each well was replaced with 50 µL growth medium containing 10% FBS. 50 µL of compounds at two-fold the desired concentration in growth medium containing 2% dimethyl sulfoxide (DMSO) were added to the wells. Six wells were replaced with fresh 100 µL of medium containing 1% FBS and 1% DMSO and were used as a control of no proliferation. Six other wells were replaced with fresh 100 µL of medium containing 10% FBS and 1% DMSO and were used as a control of top proliferation. Each compound concentration was tested in triplicate and ranged from 100 µM to 0.4 µM in half-log serial dilutions. Plates were incubated at 37°C 5% CO2 for 6 consecutive days. On the day of the assay, media was removed and replaced with 100 µL of phosphate buffered saline (PBS). A bioluminescent assay was performed to assess the intracellular adenosine-5'-triphosphate (ATP) content following the manufacturer instructions (ATP-lite, Perkin Elmer, Belgium). Results were expressed as a % of inhibition of proliferation in relation to the top and bottom proliferation wells. Absolute IC50 corresponded to the concentration of compound that caused 50% inhibition of proliferation. Table 1 depicts the mean and the standard deviation of 3 experiments for each indicated compound/combination.
row,Compound,IC50 [nM]
1,"O=C(O)c1cc(C2CC2)ccc1Nc1cnc(-c2c(F)cccc2F)nc1 [Example 2, 5-cyclopropyl-2-(2-(2,6-difluorophenyl)pyrimidin-5-ylamino)benzoic acid]",260
2,"CC(O)=C(C#N)C(=O)Nc1ccc(C(F)(F)F)cc1 [Example 3, 2-Butenamide, 2-cyano-3-hydroxy-N-[4-(trifluoromethyl)phenyl]-, reference compound]",15200
3,"COc1cccc(-c2cc(F)c(Nc3ncccc3C(=O)O)c(F)c2)c1 [Example 1, 2-(3,5-difluoro-3'-methoxybiphenyl-4-ylamino)nicotinic acid]",580
